Test results taken from DBAASP.
In brackets after ≈: the same amount, converted by molar mass.

Tests used:
Experiment in all cases: ≥ marks a high value that may be exact or a test limit, other limits are often not marked, values filed in µg/mL are converted to µM
[1] = system: Micrococcus luteus BCRC 11034
[2] = system: Staphylococcus sp. BCRC 10451
Staphylococcus aureus = system: Staphylococcus aureus
[3] = system: Vibrio harveyi BCRC 13812
[4] = system: Staphylococcus aureus BCRC 10780
Pseudomonas aeruginosa = system: Pseudomonas aeruginosa
Vibrio alginolyticus = system: Vibrio alginolyticus
[5] = system: Streptococcus pneumoniae BCRC 10794
Vibrio vulnificus 204 = system: Vibrio vulnificus 204
Streptococcus agalactiae = system: Streptococcus agalactiae
Escherichia coli DL7 = system: Escherichia coli DL7
Bacillus subtilis PS832 = system: Bacillus subtilis PS832
[6] = system: Klebsiella aerogenes ATCC 13048
[7] = system: Staphylococcus epidermidis ATCC 12228
[8] = system: Staphylococcus aureus ATCC 33591
[9] = system: Candida albicans ATCC 200955
[10] = system: Escherichia coli ATCC 25922
[11] = system: Enterococcus faecium ATCC 700221
[12] = system: Pseudomonas aeruginosa ATCC 27853
[13] = system: Candida parapsilosis ATCC 22019
[14] = system: Staphylococcus aureus ATCC 25923
[15] = system: Cryptococcus neoformans ATCC 90012
Candida krusei ATCC 6258 = system: Candida krusei ATCC 6258
[16] = system: Candida albicans ATCC 90028
[17] = system: Staphylococcus aureus ATCC 25325
[18] = system: Escherichia coli ATCC 35218
[19] = system: Staphylococcus aureus ATCC 25023
[20] = system: Salmonella enterica subsp. enterica serovar Typhi DMST 22842
Vibrio cholerae non-O1 = system: Vibrio cholerae non-O1
Vibrio cholerae non-O139 = system: Vibrio cholerae non-O139
[21] = system: Cronobacter sakazakii DPC 6440
[22] = system: Listeria monocytogenes LO28

Question: How did the MIC [1] turn out when `CC[C@H](C)[C@H](NC(=O)[C@H](CCCCN)NC(=O)[C@@H]1CCCN1C(=O)[C@@H](NC(=O)[C@H](CC(C)C)NC(=O)[C@H](C)NC(=O)[C@H](Cc1ccccc1)NC(=O)[C@H](Cc1ccccc1)NC(=O)CNC(C)=O)[C@@H](C)CC)C(=O)N[C@H](C(=O)N[C@@H](CO)C(=O)N[C@@H](CO)C(=O)N1CCC[C@H]1C(=O)N[C@@H](CC(C)C)C(=O)N[C@@H](Cc1ccccc1)C(=O)N[C@@H](CCCCN)C(=O)N[C@H](C(=O)N[C@@H](CC(C)C)C(=O)N[C@@H](CC(C)C)C(=O)N[C@@H](CO)C(=O)N[C@@H](C)C(=O)N[C@H](C(=O)NCC(=O)N[C@@H](CO)C(=O)N[C@@H](C)C(=O)N[C@@H](CC(C)C)C(=O)N[C@@H](CO)C(N)=O)C(C)C)[C@@H](C)O)[C@@H](C)CC` [GFFALIPKIISSPLFKTLLSAVGSALS] was run?
Answer: 9 µM (≈ 25.4 µg/mL)

Question: What about the MIC [2] of the same molecule?
Answer: 2.25 µM (≈ 6.34 µg/mL)

Question: And the MIC (Staphylococcus aureus)?
Answer: 4.5 µM (≈ 12.7 µg/mL)

Question: And the MIC [3]?
Answer: 4.5 µM (≈ 12.7 µg/mL)

Question: And the MIC [4]?
Answer: 18 µM (≈ 50.7 µg/mL)

Question: What about the MIC (Pseudomonas aeruginosa) of the same molecule?
Answer: 4.5 µM (≈ 12.7 µg/mL)

Question: What about the MIC (Vibrio alginolyticus) of the same molecule?
Answer: 4.5 µM (≈ 12.7 µg/mL)

Question: What about the MIC [5] of the same molecule?
Answer: 18 µM (≈ 50.7 µg/mL)

Question: What about the MIC (Vibrio vulnificus 204) of the same molecule?
Answer: 18 µM (≈ 50.7 µg/mL)

Question: And the MIC (Streptococcus agalactiae)?
Answer: 18 µM (≈ 50.7 µg/mL)

Question: Which results are given for `CC[C@H](C)[C@H](NC(=O)[C@H](CCCN=C(N)N)NC(=O)[C@H](CCCCN)NC(=O)[C@H](CC(C)C)NC(=O)[C@H](CC(C)C)NC(=O)CNC(=O)[C@H](Cc1cnc[nH]1)NC(=O)CNC(=O)CN)C(=O)N[C@@H](CCCCN)C(=O)N[C@H](C(=O)N[C@@H](CC(C)C)C(=O)N[C@@H](CC(C)C)C(N)=O)[C@@H](C)O` [GGHGLLKRIKTLL]?
Answer: MIC (Escherichia coli DL7): 4 µM (≈ 5.62 µg/mL); MIC (Bacillus subtilis PS832): 2 µM (≈ 2.81 µg/mL); MIC [6]: ≥ 32 µM; MIC [7]: 8 µM (≈ 11.2 µg/mL)

Question: Which results are given for `CC[C@H](C)[C@H](NC(=O)[C@H](CCCCN)NC(=O)[C@H](CCCCN)NC(=O)[C@H](CC(C)C)NC(=O)[C@H](CC(C)C)NC(=O)CN)C(=O)N[C@@H](CCCCN)C(=O)N[C@@H](CCCCN)C(=O)N[C@@H](CC(C)C)C(=O)N[C@@H](CC(C)C)C(N)=O` [GLLKKIKKLL]?
Answer: MIC [8]: ≥ 256 µM; MIC [9]: 28.4 µM (≈ 32.7 µg/mL); MIC [10]: 25 µM (≈ 28.8 µg/mL); MIC [11]: ≥ 56.9 µM; MIC [12]: 28.4 µM (≈ 32.7 µg/mL)

Question: How did the MIC [13] turn out when `CC[C@H](C)[C@H](NC(=O)[C@H](Cc1ccccc1)NC(=O)[C@H](CC(N)=O)NC(=O)[C@H](CCCCN)NC(=O)[C@H](C)NC(=O)[C@@H](NC(=O)[C@H](CC(N)=O)NC(=O)[C@H](Cc1ccccc1)NC(=O)[C@H](C)NC(=O)[C@H](C)NC(=O)[C@H](CCCCN)NC(=O)CNC(=O)[C@@H](NC(=O)[C@H](CCCCN)NC(=O)[C@H](CCCCN)NC(=O)[C@H](C)NC(=O)[C@@H](NC(=O)[C@H](CC(=O)O)NC(=O)[C@H](CC(C)C)NC(=O)[C@H](Cc1c[nH]c2ccccc12)NC(=O)CN)C(C)C)[C@@H](C)CC)C(C)C)C(N)=O` [GWLDVAKKIGKAAFNVAKNFI] was run?
Answer: 4 µM (≈ 9.16 µg/mL)

Question: What about the MIC [14] of the same molecule?
Answer: 1 µM (≈ 2.29 µg/mL)

Question: What about the MIC [15] of the same molecule?
Answer: 8 µM (≈ 18.3 µg/mL)

Question: And the MIC [10]?
Answer: 4 µM (≈ 9.16 µg/mL)

Question: What about the MIC (Candida krusei ATCC 6258) of the same molecule?
Answer: 8 µM (≈ 18.3 µg/mL)

Question: And the MIC [16]?
Answer: 8 µM (≈ 18.3 µg/mL)

Question: And the MIC [12]?
Answer: 8 µM (≈ 18.3 µg/mL)

Question: Which results are given for `CC(C)C[C@H](NC(=O)[C@H](C)NC(=O)[C@H](C)NC(=O)[C@H](CCCCN)NC(=O)CNC(=O)[C@@H](NC(=O)[C@H](Cc1cnc[nH]1)NC(=O)[C@H](CCCCN)NC(=O)CNC(=O)[C@@H](NC(=O)[C@H](Cc1cnc[nH]1)NC(=O)[C@H](C)NC(=O)[C@H](C)NC(=O)[C@H](CCCCN)NC(=O)[C@@H](N)CCCCN)C(C)C)C(C)C)C(=O)O` [KKAAHVGKHVGKAAL]?
Answer: MIC [17]: 20.2 µM (≈ 30.6 µg/mL); MIC [18]: 16.1 µM (≈ 24.4 µg/mL); MIC [12]: 29.5 µM (≈ 44.7 µg/mL)

Question: `CC(C)C[C@H](NC(=O)[C@H](CCCN=C(N)N)NC(=O)[C@H](CC(C)C)NC(=O)[C@H](CC(C)C)NC(=O)[C@H](CC(C)C)NC(=O)[C@H](CC(C)C)NC(=O)[C@H](CC(C)C)NC(=O)[C@H](CCCCN)NC(=O)[C@H](CCCN=C(N)N)NC(=O)[C@@H](N)CC(C)C)C(N)=O` [LRKLLLLLRL] was tested. Which MIC [19] did it give?
Answer: 25.6 µM (≈ 32 µg/mL)

Question: Which MIC [20] does the source give for `NC(=O)[C@H](Cc1c[nH]c2ccccc12)NC(=O)[C@H](Cc1c[nH]c2ccccc12)NC(=O)[C@H](Cc1c[nH]c2ccccc12)NC(=O)[C@H](CCCN=C(N)N)NC(=O)[C@H](CCCN=C(N)N)NC(=O)[C@H](Cc1c[nH]c2ccccc12)NC(=O)[C@H](Cc1c[nH]c2ccccc12)NC(=O)[C@H](CCCN=C(N)N)NC(=O)[C@H](Cc1c[nH]c2ccccc12)NC(=O)[C@H](Cc1c[nH]c2ccccc12)NC(=O)[C@@H](N)CCCN=C(N)N` [RWWRWWRRWWW] here?
Answer: ≥ 46.8 µM

Question: And the MIC (Vibrio cholerae non-O1)?
Answer: ≥ 46.8 µM

Question: What about the MIC [14] of the same molecule?
Answer: > 46.8 µM

Question: And the MIC (Vibrio cholerae non-O139)?
Answer: ≥ 46.8 µM

Question: And the MIC [7]?
Answer: > 46.8 µM

Question: For `CC[C@H](C)[C@H](NC(=O)[C@@H](N)Cc1c[nH]c2ccccc12)C(=O)N[C@@H](CCC(N)=O)C(=O)N1CCC[C@H]1C(=O)N[C@@H](CCCCN)C(=O)N[C@H](C(=O)N[C@@H](CCCCN)C(=O)N[C@H](C(=O)N[C@H](C(=O)N1CCC[C@H]1C(=O)N[C@@H](Cc1ccc(O)cc1)C(=O)N[C@@H](C)C(=O)N[C@@H](CCCN=C(N)N)C(=O)N[C@@H](Cc1ccc(O)cc1)C(=O)N[C@@H](CC(C)C)C(=O)O)[C@@H](C)CC)C(C)C)[C@@H](C)O` [WIQPKTKVIPYARYL], which MIC [21] is on record?
Answer: ≥ 39.1 µM

Question: What about the MIC [22] of the same molecule?
Answer: 19.5 µM (≈ 36.6 µg/mL)
